Values quoted from earlier work as cited in patent US11633409B2, “Solid preparation comprising dutasteride and method for preparing same” (JW PHARMACEUTICAL CORPORATION, priority 2017, dated 2023).
Where two headings read alike, the source gives them in different places.

How the values were obtained:
[1] = not given; remark: listed apart in the source

C[C@]12C=CC(=O)NC1CCC1C2CC[C@@]2(C)C1CC[C@@H]2C(=O)Nc1cc(C(F)(F)F)ccc1C(F)(F)F (stereo partly shown) [dutasteride, Dutasteride]
equilibrium solubility (in Capmul MCM NF): 2.75 g/100 g | equilibrium solubility (in PEG 400): 0.39 g/100 g | equilibrium solubility (in Transcutol): 2.41 g/100 g | equilibrium solubility (in ethanol): 4.40 g/100 g | equilibrium solubility (in isopropanol): 3.06 g/100 g | equilibrium solubility (in propylene glycol): 1.34 g/100 g | solubility in water [1]: insoluble in water
